How the values were obtained:
[1] = target: Serine/threonine-protein kinase pim-1 (Homo sapiens, UniProt P11309); test: Inhibition of human recombinant Pim1
[2] = target: Tyrosine-protein kinase Lck (Homo sapiens, UniProt P06239); test: Inhibition of human recombinant Lck
[3] = target: Serine/threonine-protein kinase PAK 2 (Homo sapiens, UniProt Q13177); test: Inhibition of human recombinant PAK2
MCF7 = test: Cytotoxicity against human MCF7 cells assessed as cell viability after 72 hrs by MTT assay; type: functional, cell-based; conditions: MCF7, 72 h
[4] = target: Macrophage colony-stimulating factor 1 receptor (Homo sapiens, UniProt P07333); test: Inhibition of human recombinant Fms
Myotonin-protein kinase = Myotonin-protein kinase (Homo sapiens, UniProt Q09013); test: Inhibition of human recombinant DMPK
NCI-H1975 = test: Cytotoxicity against human NCI-H1975 cells assessed as cell viability after 72 hrs by MTT assay; type: functional, cell-based; conditions: NCI-H1975, 72 h
[5] = target: Tyrosine-protein kinase ABL1 (Homo sapiens, UniProt P00519); test: Inhibition of human recombinant Abl
[6] = target: Platelet-derived growth factor receptor alpha (Homo sapiens, UniProt P16234); test: Inhibition of human recombinant PDGFRalpha
[7] = target: Mitogen-activated protein kinase 10 (Homo sapiens, UniProt P53779); test: Inhibition of human recombinant JNK3
HT-29 = test: Cytotoxicity against human HT-29 cells assessed as cell viability after 72 hrs by MTT assay; type: functional, cell-based; conditions: HT-29, 72 h
MDA-MB-453 = test: Cytotoxicity against human MDA-MB-453 cells assessed as cell viability after 72 hrs by MTT assay; type: functional, cell-based; conditions: MDA-MB-453, 72 h
HCT-116 = test: Cytotoxicity against human HCT116 cells assessed as cell viability after 72 hrs by MTT assay; type: functional, cell-based; conditions: HCT-116, 72 h
[8] = target: Fibroblast growth factor receptor 2 (Homo sapiens, UniProt P21802); test: Inhibition of human recombinant FGFR2
Chain of Fibroblast growth factor receptor 2 (P21802 whole entry): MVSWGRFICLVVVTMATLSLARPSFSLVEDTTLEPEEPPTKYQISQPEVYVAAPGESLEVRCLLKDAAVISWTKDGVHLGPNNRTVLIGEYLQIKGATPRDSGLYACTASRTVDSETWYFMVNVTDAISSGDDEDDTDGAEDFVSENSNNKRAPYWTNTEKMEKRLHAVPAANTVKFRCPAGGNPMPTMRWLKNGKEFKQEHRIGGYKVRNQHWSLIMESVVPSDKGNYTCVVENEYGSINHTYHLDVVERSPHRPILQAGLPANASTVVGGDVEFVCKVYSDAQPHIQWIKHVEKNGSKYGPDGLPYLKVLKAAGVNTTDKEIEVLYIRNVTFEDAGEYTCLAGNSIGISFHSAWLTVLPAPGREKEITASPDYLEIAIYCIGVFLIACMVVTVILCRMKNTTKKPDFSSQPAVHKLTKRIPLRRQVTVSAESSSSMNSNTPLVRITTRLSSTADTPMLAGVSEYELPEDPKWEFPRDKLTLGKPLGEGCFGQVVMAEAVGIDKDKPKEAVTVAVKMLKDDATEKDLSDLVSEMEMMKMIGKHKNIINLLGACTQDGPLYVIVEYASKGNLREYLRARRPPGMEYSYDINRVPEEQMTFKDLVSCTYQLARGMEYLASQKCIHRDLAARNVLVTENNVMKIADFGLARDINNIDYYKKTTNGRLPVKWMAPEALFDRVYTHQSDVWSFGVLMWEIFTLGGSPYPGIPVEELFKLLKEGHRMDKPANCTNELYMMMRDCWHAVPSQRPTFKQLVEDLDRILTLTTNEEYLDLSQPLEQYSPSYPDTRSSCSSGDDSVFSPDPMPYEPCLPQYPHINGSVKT

[9] = Cytotoxicity against human UM-UC-3 cells assessed as cell viability after 72 hrs by MTT assay; type: functional, cell-based; conditions: UMUC3, 72 h
HepG2 = test: Cytotoxicity against human HepG2 cells assessed as cell viability after 72 hrs by MTT assay; type: functional, cell-based; conditions: HepG2, 72 h
[10] = target: Serine/threonine-protein kinase Chk1 (Homo sapiens, UniProt O14757); test: Inhibition of human recombinant CHK1
[11] = target: Receptor-type tyrosine-protein kinase FLT3 (Homo sapiens) (UniProt P36888); test: Inhibition of FLT3 phosphorylation in human MV4-11 cells after 6 hrs by Western blotting analysis; type: cell-based
Chain of Receptor-type tyrosine-protein kinase FLT3 (Homo sapiens) (P36888 whole entry): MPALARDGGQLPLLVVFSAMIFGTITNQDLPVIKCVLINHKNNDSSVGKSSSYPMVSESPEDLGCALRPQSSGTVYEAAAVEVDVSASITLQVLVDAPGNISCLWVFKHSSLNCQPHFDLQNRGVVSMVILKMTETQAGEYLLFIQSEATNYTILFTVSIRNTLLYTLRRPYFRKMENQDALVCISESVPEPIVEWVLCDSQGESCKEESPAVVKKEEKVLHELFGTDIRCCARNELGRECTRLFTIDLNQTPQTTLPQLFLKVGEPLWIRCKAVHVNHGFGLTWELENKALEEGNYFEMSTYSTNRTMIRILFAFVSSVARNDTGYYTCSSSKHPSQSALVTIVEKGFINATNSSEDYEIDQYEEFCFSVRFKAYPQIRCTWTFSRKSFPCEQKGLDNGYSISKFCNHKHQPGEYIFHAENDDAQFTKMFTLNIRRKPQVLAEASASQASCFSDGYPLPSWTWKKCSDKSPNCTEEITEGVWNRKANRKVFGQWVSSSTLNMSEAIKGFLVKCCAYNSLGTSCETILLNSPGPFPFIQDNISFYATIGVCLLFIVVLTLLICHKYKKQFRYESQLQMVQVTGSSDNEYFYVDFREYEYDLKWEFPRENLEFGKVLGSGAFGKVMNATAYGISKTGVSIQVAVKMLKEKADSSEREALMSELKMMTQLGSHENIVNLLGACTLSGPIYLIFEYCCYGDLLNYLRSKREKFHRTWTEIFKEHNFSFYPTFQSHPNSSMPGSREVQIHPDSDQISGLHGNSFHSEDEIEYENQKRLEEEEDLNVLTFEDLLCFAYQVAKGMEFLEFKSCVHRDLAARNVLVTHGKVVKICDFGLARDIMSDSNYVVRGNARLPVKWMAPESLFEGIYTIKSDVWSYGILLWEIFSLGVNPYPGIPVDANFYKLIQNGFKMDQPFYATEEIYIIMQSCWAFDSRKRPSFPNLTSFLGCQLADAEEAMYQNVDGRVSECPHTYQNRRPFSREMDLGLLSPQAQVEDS

[12] = target: Calcium/calmodulin-dependent protein kinase type IV (Homo sapiens, UniProt Q16566); test: Inhibition of human recombinant CaMK4
A549 = test: Cytotoxicity against human A549 cells assessed as cell viability after 72 hrs by MTT assay; type: functional, cell-based; conditions: A549, 72 h
MDA-MB-231 = test: Cytotoxicity against human MDA-MB-231 cells assessed as cell viability after 72 hrs by MTT assay; type: functional, cell-based; conditions: MDA-MB-231, 72 h
SH-SY5Y = test: Cytotoxicity against human SH-SY5Y cells assessed as cell viability after 72 hrs by MTT assay; type: functional, cell-based
[13] = Cytotoxicity against human OCI-LY19 cells assessed as cell viability after 72 hrs by MTT assay; type: functional, cell-based; conditions: OCI-LY19, 72 h
MDA-MB-435 = test: Cytotoxicity against human MDA-MB-435 cells assessed as cell viability after 72 hrs by MTT assay; type: functional, cell-based; conditions: MDA-MB-435, 72 h
[14] = target: Hepatocyte growth factor receptor (Homo sapiens, UniProt P08581); test: Inhibition of human recombinant Met
[15] = target: Tyrosine-protein kinase receptor UFO (Homo sapiens, UniProt P30530); test: Inhibition of human recombinant Axl
[16] = target: Vascular endothelial growth factor receptor 1 (Homo sapiens, UniProt P17948); test: Inhibition of human recombinant Flt1
[17] = target: Dual specificity mitogen-activated protein kinase kinase 1 (Homo sapiens, UniProt Q02750); test: Inhibition of human recombinant MEK1
[18] = target: BDNF/NT-3 growth factors receptor (Homo sapiens, UniProt Q16620); test: Inhibition of human recombinant TrkB
[19] = target: Tyrosine-protein kinase ABL2 (Homo sapiens, UniProt P42684); test: Inhibition of human recombinant Arg
BT-474 = test: Cytotoxicity against human BT474 cells assessed as cell viability after 72 hrs by MTT assay; type: functional, cell-based; conditions: BT-474, 72 h
[20] = target: Vascular endothelial growth factor receptor 2 (Homo sapiens, UniProt P35968); test: Inhibition of human recombinant KDR
[21] = target: Cyclin-dependent kinase 7 (Homo sapiens, UniProt P50613); test: Inhibition of human recombinant CDK7
[22] = Cytotoxicity against human Calu6 cells assessed as cell viability after 72 hrs by MTT assay; type: functional, cell-based; conditions: Calu-6, 72 h
U-251 = test: Cytotoxicity against human U251 cells assessed as cell viability after 72 hrs by MTT assay; type: functional, cell-based; conditions: U-251, 72 h
[23] = target: Serine/threonine-protein kinase PLK1 (Homo sapiens, UniProt P53350); test: Inhibition of human recombinant Plk1
Ephrin type-B receptor 2 = Ephrin type-B receptor 2 (Homo sapiens, UniProt P29323); test: Inhibition of human recombinant EphB2
Chain of Ephrin type-B receptor 2 (P29323 whole entry): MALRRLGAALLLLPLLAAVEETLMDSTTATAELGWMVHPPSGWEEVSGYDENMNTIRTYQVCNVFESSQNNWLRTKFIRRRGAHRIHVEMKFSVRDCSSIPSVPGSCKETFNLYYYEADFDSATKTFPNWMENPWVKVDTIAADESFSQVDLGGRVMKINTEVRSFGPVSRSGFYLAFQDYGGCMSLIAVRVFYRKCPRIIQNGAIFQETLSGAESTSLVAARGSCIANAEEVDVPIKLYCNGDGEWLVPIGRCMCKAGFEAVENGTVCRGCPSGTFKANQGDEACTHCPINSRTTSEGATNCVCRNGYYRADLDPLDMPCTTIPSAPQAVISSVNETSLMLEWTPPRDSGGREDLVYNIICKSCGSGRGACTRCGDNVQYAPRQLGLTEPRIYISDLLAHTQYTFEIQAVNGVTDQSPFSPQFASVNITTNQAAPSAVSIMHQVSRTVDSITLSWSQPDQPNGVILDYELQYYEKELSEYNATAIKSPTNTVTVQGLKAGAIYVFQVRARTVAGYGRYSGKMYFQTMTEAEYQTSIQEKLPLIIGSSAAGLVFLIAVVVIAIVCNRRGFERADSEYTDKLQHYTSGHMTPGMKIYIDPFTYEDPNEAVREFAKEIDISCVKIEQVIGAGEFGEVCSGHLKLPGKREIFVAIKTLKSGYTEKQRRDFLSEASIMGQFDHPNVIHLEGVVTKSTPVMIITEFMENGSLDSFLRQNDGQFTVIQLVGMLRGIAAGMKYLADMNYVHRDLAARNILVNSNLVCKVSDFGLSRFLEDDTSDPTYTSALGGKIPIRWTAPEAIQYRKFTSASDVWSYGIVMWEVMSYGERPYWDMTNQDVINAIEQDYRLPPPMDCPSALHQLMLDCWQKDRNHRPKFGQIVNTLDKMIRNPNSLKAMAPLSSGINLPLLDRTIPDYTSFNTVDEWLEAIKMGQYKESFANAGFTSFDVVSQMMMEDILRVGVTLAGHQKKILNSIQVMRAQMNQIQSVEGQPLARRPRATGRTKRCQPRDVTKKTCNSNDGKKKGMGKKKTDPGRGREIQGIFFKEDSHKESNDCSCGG

Aurora kinase B = Aurora kinase B (Homo sapiens, UniProt Q96GD4); test: Inhibition of human recombinant Aurora-B
[24] = target: Serine/threonine-protein kinase/endoribonuclease IRE1 (Homo sapiens, UniProt O75460); test: Inhibition of human recombinant IRE1
[25] = target: Receptor tyrosine-protein kinase erbB-2 (Homo sapiens, UniProt P04626); test: Inhibition of human recombinant ErbB2
[26] = target: Tyrosine-protein kinase SYK (Homo sapiens, UniProt P43405); test: Inhibition of human recombinant Syk
[27] = target: Ribosomal protein S6 kinase alpha-1 (Homo sapiens, UniProt Q15418); test: Inhibition of human recombinant Rsk1
[28] = target: Tyrosine-protein kinase Lyn (Homo sapiens, UniProt P07948); test: Inhibition of human recombinant Lyn
[29] = target: Cytoplasmic tyrosine-protein kinase BMX (Homo sapiens, UniProt P51813); test: Inhibition of human recombinant Bmx
CWR22R = test: Cytotoxicity against human 22Rv1 cells assessed as cell viability after 72 hrs by MTT assay; type: functional, cell-based; conditions: 22Rv1, 72 h
[30] = target: Mitogen-activated protein kinase kinase kinase 9 (Homo sapiens, UniProt P80192); test: Inhibition of human recombinant MLK1
[31] = target: Receptor tyrosine-protein kinase erbB-4 (Homo sapiens, UniProt Q15303); test: Inhibition of human recombinant ErbB4
Chain of Receptor tyrosine-protein kinase erbB-4 (Q15303 whole entry): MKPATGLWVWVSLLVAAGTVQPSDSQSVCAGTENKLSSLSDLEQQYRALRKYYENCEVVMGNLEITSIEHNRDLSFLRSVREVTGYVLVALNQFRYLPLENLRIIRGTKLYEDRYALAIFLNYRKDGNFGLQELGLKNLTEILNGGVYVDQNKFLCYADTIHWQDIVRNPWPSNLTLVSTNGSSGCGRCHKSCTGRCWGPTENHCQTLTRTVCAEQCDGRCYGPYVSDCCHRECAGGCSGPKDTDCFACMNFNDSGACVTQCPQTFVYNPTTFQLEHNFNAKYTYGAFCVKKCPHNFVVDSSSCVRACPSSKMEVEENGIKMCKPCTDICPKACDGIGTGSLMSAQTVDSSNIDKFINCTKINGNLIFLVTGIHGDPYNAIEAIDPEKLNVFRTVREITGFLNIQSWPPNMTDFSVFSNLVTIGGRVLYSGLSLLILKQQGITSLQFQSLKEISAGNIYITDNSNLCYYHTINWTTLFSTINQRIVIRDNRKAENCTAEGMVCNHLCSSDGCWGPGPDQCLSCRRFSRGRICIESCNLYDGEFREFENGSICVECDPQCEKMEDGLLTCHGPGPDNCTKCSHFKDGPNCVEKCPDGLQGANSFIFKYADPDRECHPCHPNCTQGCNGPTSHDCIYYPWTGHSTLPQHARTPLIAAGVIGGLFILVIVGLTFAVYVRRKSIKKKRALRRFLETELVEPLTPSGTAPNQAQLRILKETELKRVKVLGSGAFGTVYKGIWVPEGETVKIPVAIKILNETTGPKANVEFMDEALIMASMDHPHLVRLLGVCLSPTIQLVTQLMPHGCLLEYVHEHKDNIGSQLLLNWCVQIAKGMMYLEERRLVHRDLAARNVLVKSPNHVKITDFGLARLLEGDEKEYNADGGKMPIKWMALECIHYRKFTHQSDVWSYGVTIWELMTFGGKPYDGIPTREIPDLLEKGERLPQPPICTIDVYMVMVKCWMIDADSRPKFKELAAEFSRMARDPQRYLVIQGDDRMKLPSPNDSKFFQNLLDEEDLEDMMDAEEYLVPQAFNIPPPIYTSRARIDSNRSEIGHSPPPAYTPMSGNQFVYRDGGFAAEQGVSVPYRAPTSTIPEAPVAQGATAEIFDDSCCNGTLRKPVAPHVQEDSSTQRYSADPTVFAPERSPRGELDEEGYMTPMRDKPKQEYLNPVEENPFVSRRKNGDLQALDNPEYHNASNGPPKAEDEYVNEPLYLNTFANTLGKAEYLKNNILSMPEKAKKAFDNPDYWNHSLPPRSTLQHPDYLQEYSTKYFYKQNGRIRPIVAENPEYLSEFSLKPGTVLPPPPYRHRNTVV

[32] = target: Tyrosine-protein kinase Fes/Fps (Homo sapiens, UniProt P07332); test: Inhibition of human recombinant Fes
Chain of Tyrosine-protein kinase Fes/Fps (P07332 whole entry): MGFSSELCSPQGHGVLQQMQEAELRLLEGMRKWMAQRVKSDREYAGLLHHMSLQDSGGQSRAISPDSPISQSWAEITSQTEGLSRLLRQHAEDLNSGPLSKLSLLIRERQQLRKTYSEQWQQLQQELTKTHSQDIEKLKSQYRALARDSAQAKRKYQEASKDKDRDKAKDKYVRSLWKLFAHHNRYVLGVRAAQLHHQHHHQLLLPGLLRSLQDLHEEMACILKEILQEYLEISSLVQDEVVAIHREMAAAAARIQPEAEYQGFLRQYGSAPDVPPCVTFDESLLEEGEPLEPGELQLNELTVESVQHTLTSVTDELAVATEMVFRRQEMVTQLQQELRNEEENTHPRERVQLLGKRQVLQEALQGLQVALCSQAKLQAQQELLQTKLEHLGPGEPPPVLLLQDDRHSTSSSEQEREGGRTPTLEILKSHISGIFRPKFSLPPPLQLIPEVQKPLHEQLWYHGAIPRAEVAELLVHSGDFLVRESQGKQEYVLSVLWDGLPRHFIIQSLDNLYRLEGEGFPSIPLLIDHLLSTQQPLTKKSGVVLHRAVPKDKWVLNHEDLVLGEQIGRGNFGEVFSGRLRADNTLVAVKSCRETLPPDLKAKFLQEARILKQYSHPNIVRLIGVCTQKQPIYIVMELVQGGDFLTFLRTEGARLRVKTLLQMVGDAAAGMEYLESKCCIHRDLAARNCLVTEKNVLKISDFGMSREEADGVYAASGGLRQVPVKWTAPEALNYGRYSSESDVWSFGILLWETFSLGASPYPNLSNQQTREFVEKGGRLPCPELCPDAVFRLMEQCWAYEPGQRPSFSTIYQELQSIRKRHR

[33] = target: Insulin-like growth factor 1 receptor (Homo sapiens, UniProt P08069); test: Inhibition of human recombinant IGF-1R
Aurora kinase A = Aurora kinase A (Homo sapiens, UniProt O14965); test: Inhibition of human recombinant Aurora-A

CN(C)CCCNC(=O)c1csc2nc(-c3ccc(NC(=O)Nc4cc(C(C)(C)C)on4)cc3)cn12
2.83 µM: IC50 [16]
3.3 µM: IC50 (SH-SY5Y) | IC50 [13]
10 µM: IC50 (HT-29) | IC50 (HCT-116) | IC50 [9] | IC50 (HepG2) | IC50 (A549) | IC50 (MDA-MB-231) | IC50 (BT-474) | IC50 [22]
4.04 µM: IC50 [1]
0.043 µM: IC50 [4]
> 10 µM: IC50 [2] | IC50 [3] | IC50 (MCF7) | IC50 (Myotonin-protein kinase) | IC50 (NCI-H1975) | IC50 [5] | IC50 [7] | IC50 (MDA-MB-453) | IC50 [8] | IC50 [10] | IC50 [12] | IC50 (MDA-MB-435) | IC50 [14] | IC50 [15] | IC50 [17] | IC50 [18] | IC50 [19] | IC50 [21] | IC50 (U-251) | IC50 [23] | IC50 (Ephrin type-B receptor 2) | IC50 (Aurora kinase B) | IC50 [24] | IC50 [25] | IC50 [26] | IC50 [27] | IC50 [28] | IC50 [29] | IC50 (CWR22R) | IC50 [30] | IC50 [31] | IC50 [32] | IC50 [33] | IC50 (Aurora kinase A)
active: inhibition [11] Dose-dependent effect
0.37 µM: IC50 [6]
2.46 µM: IC50 [20]

Reference: ChEMBL document CHEMBL3621115, “Discovery of 6-phenylimidazo[2,1-b]thiazole derivatives as a new type of FLT3 inhibitors” (Bioorg Med Chem Lett, 2015)
